Measured values: patent US8569578B1, “Generating transgenic potatoes with novel resistance to potato cyst nematodes by silencing nematode parasitism genes of CLE -1 and CLE-4s” (The United States of America, as represented by the …, priority 2009, dated 2013)
Entries after “also recorded” stand apart in the source; their conditions may differ.

B1: Gr-CLE-4-D: G. rostochiensis CLE gene of class Gr-CLE-4, cDNA SEQ ID NO: 6 (nucleic acid, listed as Globodera rostochiensis)
DNA: ATCATAATTTCCAAAATCCCAATAAAAGCTTCCTCAATAAAGTAAATATGGCCAAGAACGCAATGCTTTGCCTGCTAATTTTGAGCGTTGTTCTCGCTCTCGCATTTGCTACGAATAAAAAGGATGATGAAGAACCGGAGAACCATTCGACCGGCATTTTTGGAAAGGTCGGACGAGTTGTGACCGTGGCACTTGCGATGTCGTCTCGTCTGGGAGGGGCTAACGCAACCCGAGGAGGTGGAGCTGTATATGGAAGAAACTTGAAATCCAATCAATTGCCAAACAACAATTGGATGGCGCCACCTCCTCCAATGGCAATGAGAAGTGCCAAAGTCTATGATTCGAAACATTCTCCTGCTGAATATCTTAAAAAATTTGCTCAAGACTTTCGCCGAAAAACCGGCACGCACTCCCAGCGGCATCACGAAGAAACAACACTGGAACAGGAGAAGCGTGGAGCGCCAGCTGGGCCCGACCCAATACATCACCAAGATACAACATTTGAACAGGAGAAGCGTGGAGCGCCAGCTGGGCCCGACCCAATACATCACCAAGATACAACACTGGAACAGGAGAAGCGTGTAGCGGGAGCTGGGCCCGACCCAATACATCACCAAGATACAAAATTTGAACAGGAGAAGCGTGGAGCGCCAGCTGGGCCCGACCCAATACATCACTGATGCTCTTATTCACAATGCTAAAATATTTTAGACTATAGATAAATTGCTAGCAACAGATAAATGCCTATTCAT

What was measured:
Format in all cases: in vivo
[1] = test system: Arabidopsis (Columbia-0) roots; assay: in vitro root assay with synthetic CLE peptides on Arabidopsis roots; conditions: 10 μM peptide in assay medium, compared with no peptide or Ag-16p
Excerpt: (§1) Mounting evidence supports that the conserved CLE motif represents the major functional domain of plant CLE proteins. Gr-CLE genes encode four different 12-aa CLE motifs (FIG. 1A). To examine the functional sufficiency of these nematode CLE motifs, we conducted in vitro root assays (Fiers et al. 2005) using synthetic dodecapeptides (GrCLE1-1-12p, GrCLE4-1-12p, GrCLE4-2-12p, and GrCLE4-3-12p) corresponding to the four CLE motifs of Gr-CLE proteins. A 16-aa peptide (Ag-16p) (Fiers et al. 2005) corresponding to the C-terminus of AGAMOUS that has no similarity with plant CLE motifs and a 12-aa CLV3 peptide (CLV3-12p) were used as negative and positive controls, respectively. In addition, several peptides, including a mutated GrCLE1-1 dodecapeptide (GrCLE1-1m-12p, with a Gly-to-Ala conversion as in clv3-1 and clv3-5 mutants), a 14-aa GrCLE1-1 peptide (GrCLE1-1-14p, with one additional N-terminal and one additional C-terminal residue compared to Gr-CLE1-1-12p), and three 13-aa peptides of GrCLE4-1-13p, GrCLE4-2-13p, and GrCLE4-3-13p (all contained an extra N-terminal lysine residue compared to the corresponding dodecapeptides), were synthesized and used in the in vitro root assays.
(§2) Peptides with a purity of >70% were synthesized (Sigma-Aldrich Corp., St. Louis, Mo., U.S.A) and dissolved in filter-sterilized 50 mM sodium phosphate buffer. Three Gr-CLE-1 related peptides were synthesized: GrCLE1-1-12p (12 aa, RVIPGGPDPLHN; SEQ ID NO: 12), GrCLE1-1m-12p (12 aa, RVIPGAPDPLHN; SEQ ID NO: 13, with a G-to-A conversion at position 6), and GrCLE1-1-14p (14 aa, KRVIPGGPDPLHNR; SEQ ID NO: 14). Six Gr-CLE-4 related peptides were synthesized: GrCLE4-1-12p (12 aa, RVAGAGPDPIHH; SEQ ID NO: 15), GrCLE4-1-13p (13 aa, KRVAGAGPDPIHH; SEQ ID NO: 16), GrCLE4-2-12p (12 aa, RAVPAGPDPKHH; SEQ ID NO: 17), GrCLE4-2-13p (13 aa, KRAVPAGPDPKHH; SEQ ID NO: 18), GrCLE4-3-12p (12 aa, RGAPAGPDP IHH; SEQ ID NO: 19), and GrCLE4-3-13p (13 aa, KRGAPAGPDPIHH; SEQ ID NO: 20). Positive and negative control peptides included CLV3-12p (12 aa, RTVPSGPDPLHH; SEQ ID NO: 21) and Ag-16p (16 aa, APNNHHYSSAGRQDQT; SEQ ID NO: 22) (Fiers et al., 2005).
(§3) For peptide treatments, seeds of wild-type Arabidopsis (Columbia-0) and potato, nonhost and host of G. rostochiensis, respectively, were surface-sterilized and plated on square plates (8-12 seeds per plate) containing the assay medium (Fiers et al. 2005, supra) with 10 μM of each peptide. Assay plates were placed vertically in a growth chamber and cultured at 23° C. for 16 h of light and 8 h of dark. The root length was measured from the base of the hypocotyl to the tip of the primary root at several time points after plating. Two independent experiments were conducted.

potato roots = assay: in vitro root assay with synthetic CLE peptides on potato roots; conditions: 10 μM peptide in assay medium, compared with no peptide or Ag-16p
Excerpt: as §1, §2, §3

potato hairy roots = assay: overexpression of Gr-CLE genes in potato hairy roots; conditions: measured at 4, 6, 8 and 10 days after dissecting; compared with vector control
Excerpt: To examine root meristems, primary root tips were excised from peptide treated Arabidopsis seedlings or from transgenic potato hairy roots and immediately mounted in water onto a glass slide. Roots were examined under an Olympus BX-50 microscope equipped with Nomarski optics and images were captured using a QImaging Retiga EXi digital CCD camera (QImaging, Surrey, BC, Canada). The root apical meristem (RAM) regions of individual primary roots that covered the distance from the position around the quiescent center to the position where elongated root cells immediately follow cytoplasm-dense meristematic cells were measured microscopically. The collected data were analyzed using the MetaMorph imaging analysis software (Universal Imaging Corporation, Downingtown, Pa., U.S.A.)
A. rhizogenes strain 15834 was transformed with individual transgene constructs of interest and used for the generation of potato hairy roots as described previously (Wang et al. 2007. Mol. Plant Pathol. 8:423-436) with some modifications. Potato stem pieces from tissue cultures were incubated with the transformed A. rhizogenes cell suspension for 10 mins, then transferred onto the callus induction medium containing 1×MS salts (Sigma-Aldrich), 26.7 μM Glycine, 4 μM Nicotinic Acid, 2.4 μM Pyridoxine HCL (Sigma-Aldrich), 1.2 μM Thiamine HCL (Sigma-Aldrich), 0.5 μM Folic Acid, 0.2 μM d-biotin (Sigma-Aldrich), 0.01% Myo-inositol (Acros, Morris Plains, N.J., U.S.A.), 3% sucrose, 0.001% 6-BAP (Sigma-Aldrich), 0.002% NAA (Sigma-Aldrich), and 1% agar and cultivated for four days at 24° C. without light. The infected stem pieces were then cultured on the propagation medium containing 1×MS salts, 1.2 mM NaH2PO4, 0.01% Myo-inositol, 0.1% Thiamine HCl, 3% sucrose, 1% agar, 50 μg/mL of kanamycin, and 238 μg/mL of timentin (GlaxoSmithKline). Timentin was used to inhibit the growth of A. rhizogenes 15834 and kanamycin was added to select for transformed roots. Approximately 12-15 days after root emergence, 1 cm-long root tips were dissected and cultured on vertical plates containing the propagation medium with 119 μg/mL of timentin and the root growth rate was measured at different time points.

Molecule | suppression of root growth (length of main root) [1] | suppression of root growth (length of main root) (potato roots) | suppression of root growth (length of main root) ([1]; listed as Gr-CLE4-2-12p) | suppression of root growth (length of main root) (potato roots; listed as Gr-CLE4-2-12p) | length of primary roots of transgenic potato hairy root lines (potato hairy roots)
KRVIPGGPDPLHNR (listed as Globodera rostochiensis) [GrCLE1-1-14p, 14 aa GrCLE1-1 peptide withone additional N-terminal and C-terminal residue] | significantly shorter; also recorded: comparable level of root suppression activity as GrCLE1-1-12p | significantly shorter |  |  | 
RVAGAGPDPIHH (listed as Globodera rostochiensis) [GrCLE4-1-12p, 12 aa Gr-CLE-4 related peptide] | suppressed root growth; also recorded: significantly shorter | suppressed root growth; also recorded: significantly shorter |  |  | 
RVIPGAPDPLHN (listed as Globodera rostochiensis) [GrCLE1-1m-12p, mutated GrCLE1-1 dodecapeptide with a G-to-A conversion at position 6] | significantly shorter | significantly shorter |  |  | 
KRGAPAGPDPIHH (LRGAPAGPDPIHH; listed as Globodera rostochiensis) [GrCLE4-3-13p, 13 aa peptide with extra N-terminal lysine] | did not show activities on root suppression | did not show activities on root suppression |  |  | 
RAVPAGPDPKHH (RAVPAGPDPLHH; listed as Globodera rostochiensis) [GrCLE4-2-12p, 12 aa Gr-CLE-4 related peptide] | significantly shorter | significantly shorter | suppressed root growth | suppressed root growth | 
RGAPAGPDP IHH (RGAPAGPDPIHH; listed as Globodera rostochiensis) [GrCLE4-3-12p, 12 aa Gr-CLE-4 related peptide] | suppressed root growth; also recorded: significantly shorter | suppressed root growth; also recorded: significantly shorter |  |  | 
KRVAGAGPDPIHH (LRVAGAGPDPIHH; listed as Globodera rostochiensis) [GrCLE4-1-13p, 13 aa peptide with extra N-terminal lysine] | did not show activities on root suppression | did not show activities on root suppression |  |  | 
KRAVPAGPDPKHH (LRAVPAGPDPLHH; listed as Globodera rostochiensis) [GrCLE4-2-13p, 13 aa peptide with extra N-terminal lysine] | did not show activities on root suppression | did not show activities on root suppression |  |  | 
B1 |  |  |  |  | short root phenotype
